In patent publication US20230116972A1, “CD38 MODULATORS AND METHODS OF USE THEREOF” (Cytokinetics, Inc., priority 2021, published 2023):

How the values were obtained:
human CD38 = target: T1, human CD38 (Homo sapiens, UniProt P28907); test: human recombinant CD38 enzyme assay (hydrolysis of NAD+); assay type: biochemical; conditions: human recombinant CD38, 0.4 nM enzyme, 62.5 μM NAD+; read-out: hCD38 BioChem IC50
T1 sequence (P28907 1-300): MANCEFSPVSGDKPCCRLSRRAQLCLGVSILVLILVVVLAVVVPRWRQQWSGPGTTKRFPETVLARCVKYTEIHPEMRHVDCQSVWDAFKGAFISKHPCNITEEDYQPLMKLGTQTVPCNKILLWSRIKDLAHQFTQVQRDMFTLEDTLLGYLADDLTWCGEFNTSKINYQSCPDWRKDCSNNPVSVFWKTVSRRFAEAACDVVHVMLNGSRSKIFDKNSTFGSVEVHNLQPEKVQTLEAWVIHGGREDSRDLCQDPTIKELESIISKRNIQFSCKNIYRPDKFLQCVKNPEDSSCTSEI
In short: (§1)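 Residual NAD+ after 60 min of cell-free hydrolysis by recombinant mouse or human CD38 at ambient temperature, measured over a dose range. Detection used ADH conversion to NADH, then diaphorase-coupled resazurin-to-resorufin fluorescence (Ex/Em 540/590 nm).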

mouse CD38 = target: T2, mouse CD38 (Mus musculus, UniProt P56528); test: mouse recombinant CD38 enzyme assay (hydrolysis of NAD+); assay type: biochemical; conditions: read-out: mCD38 BioChem IC50
T2 sequence (P56528 1-304): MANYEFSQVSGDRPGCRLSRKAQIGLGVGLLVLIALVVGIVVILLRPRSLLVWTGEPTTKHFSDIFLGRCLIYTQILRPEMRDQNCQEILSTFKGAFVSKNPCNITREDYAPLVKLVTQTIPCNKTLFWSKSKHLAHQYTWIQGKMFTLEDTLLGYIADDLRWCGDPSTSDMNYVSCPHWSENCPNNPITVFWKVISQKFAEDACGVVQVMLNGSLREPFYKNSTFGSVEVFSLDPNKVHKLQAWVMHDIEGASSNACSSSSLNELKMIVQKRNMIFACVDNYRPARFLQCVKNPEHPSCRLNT
In short: as §1

[1] = target: T3, endogenous CD38 in HL60 cells (Homo sapiens, UniProt P28907); test: cellular CD38 assay in HL60 cells (cellular NAD levels); assay type: cell-based; conditions: all-trans retinoic acid, 24 hours, read-out: hCD38 HL60 ATRA NAD Cell Diaphorase IC50
T3 construct: endogenous in cells; host or cells: HL60 (leukemic cells, treated with all-trans retinoic acid)
T3 sequence (P28907 1-300): T1 sequence (P28907 1-300)
In short: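 Endogenous CD38 inhibition is inferred from NAD levels in HL60 cells after 24 h compound exposure at 20000 cells per well. A lytic cycling readout (0.2 U/mL diaphorase, 0.8 U/mL alcohol dehydrogenase, resazurin, FMN, ethanol, 0.2% Triton X-100, Tris/EDTA pH 8.4) ran 60 min at ambient temperature. Resorufin fluorescence was read at 540/590 nm.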

Compound | IC50 (human CD38) [nM] | IC50 (mouse CD38) [nM] | IC50 [1] [nM]
Cn1cncc1-c1ccnc(C(=O)N[C@H]2C[C@@H](c3ccc(C(F)(F)F)nc3)C2)n1 [Compound 274, 4-(1-methyl-1H-imidazol-5-yl)-N-((1s,3s)-3-(6-(trifluoromethyl)pyridin-3-yl)cyclobutyl)pyrimidine-2-carboxamide] | 404 | 185 | 10800
Cn1cncc1-c1ccnc(C(=O)N[C@H]2CC[C@H](OC(F)F)CC2)n1 [Compound 275, N-((1r,4r)-4-(difluoromethoxy)cyclohexyl)-4-(1-methyl-1H-imidazol-5-yl)pyrimidine-2-carboxamide] | 31.5 | 15.4 | 2210
Cn1cncc1-c1nc(C(=O)N[C@@H]2C[C@@H]3[C@H](C2)C3(F)F)cc(C2CCOCC2)n1 [Compound 280, N-((1R,3s,5S)-6,6-difluorobicyclo[3.1.0]hexan-3-yl)-2-(1-methyl-1H-imidazol-5-yl)-6-(tetrahydro-2H-pyran-4-yl)pyrimidine-4-carboxamide] | 10.7 | 3.2 | 1500
Cn1cncc1-c1nc(C(=O)N[C@H]2C[C@H](C(C)(C)O)C2)cc(C2CCOCC2)n1 [Compound 283, N-((1r,3r)-3-(2-hydroxypropan-2-yl)cyclobutyl)-2-(1-methyl-1H-imidazol-5-yl)-6-(tetrahydro-2H-pyran-4-yl)pyrimidine-4-carboxamide] | 18.4 | 4.3 | 5690
Cn1cncc1-c1ccnc(C(=O)N[C@H]2C[C@H](C(C)(C)O)C2)n1 [Compound 284, N-((1r,3r)-3-(2-hydroxypropan-2-yl)cyclobutyl)-4-(1-methyl-1H-imidazol-5-yl)pyrimidine-2-carboxamide] | 277 | 59.7 | 11000
Cn1cncc1-c1nc(C(=O)Nc2ccc(C(F)(F)F)nc2)cc(C2CCC(F)(F)CC2)n1 [Compound 285, 6-(4,4-difluorocyclohexyl)-2-(1-methyl-1H-imidazol-5-yl)-N-(6-(trifluoromethyl)pyridin-3-yl)pyrimidine-4-carboxamide] | 8.6 | 1 | 1240
Cn1cncc1-c1nc(C(=O)NC2CC3(COC3)C2)cc(C2CCC(F)(F)CC2)n1 [Compound 286, 6-(4,4-difluorocyclohexyl)-2-(1-methyl-1H-imidazol-5-yl)-N-(2-oxaspiro[3.3]heptan-6-yl)pyrimidine-4-carboxamide] | 8.1 | 1.2 | 3730
Cn1cncc1-c1nc(C(=O)N[C@H]2CC[C@H](O)CC2)cc(C2CCC(F)(F)CC2)n1 [Compound 288, 6-(4,4-difluorocyclohexyl)-N-((1r,4r)-4-hydroxycyclohexyl)-2-(1-methyl-1H-imidazol-5-yl)pyrimidine-4-carboxamide] | 10.3 | 1 | 2580
Cn1cncc1-c1nc(C(=O)NC23CC(C(C)(C)O)(C2)C3)cc(C2CCOCC2)n1 [Compound 292, N-(3-(2-hydroxypropan-2-yl)bicyclo[1.1.1]pentan-1-yl)-2-(1-methyl-1H-imidazol-5-yl)-6-(tetrahydro-2H-pyran-4-yl)pyrimidine-4-carboxamide] | 21.4 | 7.1 | 6610
O=C(N[C@H]1CC[C@H](OC(F)F)CC1)c1nccc(-n2ccnc2)n1 [Compound 293, N-((1r,4r)-4-(difluoromethoxy)cyclohexyl)-4-(1H-imidazol-1-yl)pyrimidine-2-carboxamide] | 58.5 | 36.2 | 2830
Cn1cncc1-c1ccnc(C(=O)NC23CC(C(C)(C)O)(C2)C3)n1 [Compound 294, N-(3-(2-hydroxypropan-2-yl)bicyclo[1.1.1]pentan-1-yl)-4-(1-methyl-1H-imidazol-5-yl)pyrimidine-2-carboxamide] | 251 | 176 | 4480
Cc1ncc(-c2cncn2C)nc1C(=O)Nc1ccc(C(F)(F)F)nc1 [Compound 296, 3-methyl-6-(1-methyl-1H-imidazol-5-yl)-N-(6-(trifluoromethyl)pyridin-3-yl)pyrazine-2-carboxamide] | 8.7 | 9.9 | 1140
CCO[C@H]1C[C@H](NC(=O)c2nccc(-c3cncn3C)n2)C1 [Compound 299, N-((1r,3r)-3-ethoxycyclobutyl)-4-(1-methyl-1H-imidazol-5-yl)pyrimidine-2-carboxamide] | 288 | 74.8 | 4100
Cn1cncc1-c1nc(C(=O)N[C@H]2CC[C@H](NCC(F)(F)F)CC2)cc(C2CCOCC2)n1 [Compound 300, 2-(1-methyl-1H-imidazol-5-yl)-6-(tetrahydro-2H-pyran-4-yl)-N-((1r,4r)-4-((2,2,2-trifluoroethyl)amino)cyclohexyl) pyrimidine-4-carboxamide] | 15.7 | 1.6 | 2120

Continued by falling IC50 (human CD38), values first:

IC50 (human CD38) [nM] | IC50 (mouse CD38) [nM] | IC50 [1] [nM] | Compound
7.9 | 10.7 | 2070 | Cn1cncc1-c1nc(C(=O)N[C@H]2C[C@](O)(c3ccccc3)C2)cc(C2CCOCC2)n1 [Compound 277, N-((1s,3s)-3-hydroxy-3-phenylcyclobutyl)-2-(1-methyl-1H-imidazol-5-yl)-6-(tetrahydro-2H-pyran-4-yl)pyrimidine-4-carboxamide]
5.1 | 42.6 | 865 | COc1ncc(-c2cncn2C)nc1C(=O)Nc1ccc(C(F)(F)F)nc1 [Compound 279, 3-methoxy-6-(1-methyl-1H-imidazol-5-yl)-N-(6-(trifluoromethyl)pyridin-3-yl)pyrazine-2-carboxamide]
4.1 | 1.3 | 1330 | Cn1cncc1-c1nc(C(=O)N[C@H]2CC[C@H](OC(F)F)CC2)cc(C2CCOCC2)n1 [Compound 281, N-((1r,4r)-4-(difluoromethoxy)cyclohexyl)-2-(1-methyl-1H-imidazol-5-yl)-6-(tetrahydro-2H-pyran-4-yl)pyrimidine-4-carboxamide]
4.1 | 3.4 | 2620 | Cn1cncc1-c1nc(C(=O)N[C@H]2C[C@H](Oc3ccccc3)C2)cc(C2CCOCC2)n1 [Compound 291, 2-(1-methyl-1H-imidazol-5-yl)-N-((1r,3r)-3-phenoxycyclobutyl)-6-(tetrahydro-2H-pyran-4-yl)pyrimidine-4-carboxamide]
3.1 | 0.7 | 882 | Cn1cncc1-c1nc(C(=O)Nc2ccc(C(F)F)nc2)cc(C2CCC(F)(F)CC2)n1 [Compound 287, 6-(4,4-difluorocyclohexyl)-N-(6-(difluoromethyl)pyridin-3-yl)-2-(1-methyl-1H-imidazol-5-yl)pyrimidine-4-carboxamide]
2.4 | 0.7 | 655 | Cn1cncc1-c1nc(C(=O)Nc2ccc(OC(F)F)nc2)cc(C2CCOCC2)n1 [Compound 282, N-(6-(difluoromethoxy)pyridin-3-yl)-2-(1-methyl-1H-imidazol-5-yl)-6-(tetrahydro-2H-pyran-4-yl)pyrimidine-4-carboxamide]
1.4 | 4.4 | 209 | Cn1cncc1-c1ccnc(C(=O)Nc2ccc(OC(F)F)nc2)n1 [Compound 276, N-(6-(difluoromethoxy)pyridin-3-yl)-4-(1-methyl-1H-imidazol-5-yl)pyrimidine-2-carboxamide]
